Results published in patent US12059422B2 (MEI Pharma, Inc., priority 2011, dated 2024).

Key:
Type in all cases: biochemical
PI3K alpha = target: T1, PI3K alpha (Homo sapiens, UniProt P42336); test: Luciferase-based luminescence assay (KinaseGlo), PI3K alpha enzymatic activity; conditions: inhibition of enzymatic activity, 25 μM ATP, read-out: IC50 p110α
T1 construct: purchased Invitrogen Corp., Carlsbad, CA, USA
Protocol: (§1) PI3K catalyzes the conversion of phosphatidylinositol-4,5-bisphosphate (PIP2) and ATP to phosphatidylinositol-3,4,5-trisphosphate (PIP3) and ADP. For all assays, the reaction buffer comprised 50 mM HEPES, pH 7.5, 3 mM MgCl2, 1 mM EGTA, 100 mM NaCl, 0.03% CHAPS and 2 mM DTT. Compounds for testing were dissolved and serially diluted in 100% DMSO (total of 10 concentrations), then diluted 1:25 in reaction buffer.
(§2) PI3K alpha and PI3K delta enzymatic activity was determined by measuring the amount of ATP consumed following the kinase reaction using a luciferase-based luminescence assay (KinaseGlo®, Promega Corp., Madison, WI, USA). PI3K enzyme solutions were prepared by diluting PI3K alpha (Invitrogen Corp., Carlsbad, CA, USA) or PI3K delta (Millipore, Billerica, MA, USA) in reaction buffer, to 4× the final assay concentration (final concentrations of enzymes were 1.65 nM and 6.86 nM for PI3K alpha and PI3K delta, respectively). A substrate solution was prepared by mixing PIP2 and ATP in reaction buffer at 2× the final assay concentration (final concentrations were 50 μM and 25 μM for PIP2 and ATP respectively). 2.5 μL each of the compound and kinase mixtures were added to individual wells of white low volume 384-well assay plates and mixed by shaking. The reactions were started by adding 5 μL of substrate mixture per well and shaking. The assay plates were covered and reactions were allowed to proceed for 1 hour (PI3K alpha) or 2 hours (PI3K delta), after which 10 μL of Kinase Glo® reagent was added. The plates were briefly centrifuged and incubated for 10 minutes, after which luminescence was measured using a FlexStation plate reader (Molecular Devices, Sunnyvale, CA, USA). IC50 values were determined by curve fitting using Graphpad Prism software (Graphpad Software, La Jolla, CA, USA).

PI3K delta = target: T2, PI3K delta (Homo sapiens, UniProt O00329); test: Luciferase-based luminescence assay (KinaseGlo), PI3K delta enzymatic activity; conditions: for IC50: inhibition of enzymatic activity, KinaseGlo, 25 μM ATP, read-out: IC50 p110δ; for α/δ ratio: ratio of enzymatic IC50 against PI3Kα over IC50 against PI3Kδ; for β/δ ratio / γ/δ ratio: ratio of enzymatic IC50 values, Table 1
T2 construct: purchased Millipore, Billerica, MA, USA
Protocol: as §1, §2

PI3K beta = target: T3, PI3K beta (Homo sapiens, UniProt P42338); test: Luciferase-based luminescence assay (ADP Glo), PI3K beta enzymatic activity; conditions: for IC50: inhibition of enzymatic activity, ADP Glo, 25 μM ATP, read-out: IC50 p110β; for α/β ratio: ratio of enzymatic IC50 values, Table 1
T3 construct: purchased Millipore, Billerica, MA, USA
Protocol: as §1
(§3) PI3K beta and gamma enzymatic activity was determined by measuring the amount of ADP produced following the kinase reaction using a luciferase-based luminescence assay (ADP Glo®, Promega Corp., Madison, WI, USA). PI3K enzyme solutions were prepared by diluting PI3K beta (Millipore, Billerica, MA, USA) or PI3K gamma (Invitrogen Corp., Carlsbad, CA, USA) in reaction buffer, to 4× the final assay concentration (final concentrations of enzymes were 4.8 nM and 7.6 nM for PI3K beta and PI3K gamma respectively). A substrate solution was prepared by mixing PIP2 and ATP in reaction buffer at 2× the final assay concentration (final concentrations were 50 μM and 25 μM for PIP2 and ATP respectively). 2.5 μL each of the compound and kinase mixtures were added to individual wells of white low volume 384-well assay plates and mixed by shaking. The reactions were started by adding 5 μL of substrate mixture per well and shaking. The assay plates were covered and reactions were allowed to proceed for 1 hour. Then, 5 μL of reaction mix was transferred to another white low volume 384-well plate, and 5 μL of ADP-Glo™ reagent was added. The plates were briefly centrifuged and incubated for 40 minutes, after which 10 μL of kinase detection buffer was added. The plates then were centrifuged briefly, shaken slowly and equilibrated at room temperature for 30 minutes, after which luminescence was measured using a FlexStation plate reader (Molecular Devices, Sunnyvale, CA, USA). IC50 values were determined by curve fitting using Graphpad Prism software (Graphpad Software, La Jolla, CA, USA).

PI3K gamma = target: T4, PI3K gamma (Homo sapiens, UniProt P48736); test: Luciferase-based luminescence assay (ADP Glo), PI3K gamma enzymatic activity; conditions: inhibition of enzymatic activity, 25 μM ATP, read-out: IC50 p110γ
T4 construct: purchased Invitrogen Corp., Carlsbad, CA, USA
Protocol: as §1, §3

mTOR = mTOR (Homo sapiens, UniProt P42345); test: mTOR inhibition (Table 1); conditions: Table 1, no method described

T4 sequence (P48736 whole entry, species assumed): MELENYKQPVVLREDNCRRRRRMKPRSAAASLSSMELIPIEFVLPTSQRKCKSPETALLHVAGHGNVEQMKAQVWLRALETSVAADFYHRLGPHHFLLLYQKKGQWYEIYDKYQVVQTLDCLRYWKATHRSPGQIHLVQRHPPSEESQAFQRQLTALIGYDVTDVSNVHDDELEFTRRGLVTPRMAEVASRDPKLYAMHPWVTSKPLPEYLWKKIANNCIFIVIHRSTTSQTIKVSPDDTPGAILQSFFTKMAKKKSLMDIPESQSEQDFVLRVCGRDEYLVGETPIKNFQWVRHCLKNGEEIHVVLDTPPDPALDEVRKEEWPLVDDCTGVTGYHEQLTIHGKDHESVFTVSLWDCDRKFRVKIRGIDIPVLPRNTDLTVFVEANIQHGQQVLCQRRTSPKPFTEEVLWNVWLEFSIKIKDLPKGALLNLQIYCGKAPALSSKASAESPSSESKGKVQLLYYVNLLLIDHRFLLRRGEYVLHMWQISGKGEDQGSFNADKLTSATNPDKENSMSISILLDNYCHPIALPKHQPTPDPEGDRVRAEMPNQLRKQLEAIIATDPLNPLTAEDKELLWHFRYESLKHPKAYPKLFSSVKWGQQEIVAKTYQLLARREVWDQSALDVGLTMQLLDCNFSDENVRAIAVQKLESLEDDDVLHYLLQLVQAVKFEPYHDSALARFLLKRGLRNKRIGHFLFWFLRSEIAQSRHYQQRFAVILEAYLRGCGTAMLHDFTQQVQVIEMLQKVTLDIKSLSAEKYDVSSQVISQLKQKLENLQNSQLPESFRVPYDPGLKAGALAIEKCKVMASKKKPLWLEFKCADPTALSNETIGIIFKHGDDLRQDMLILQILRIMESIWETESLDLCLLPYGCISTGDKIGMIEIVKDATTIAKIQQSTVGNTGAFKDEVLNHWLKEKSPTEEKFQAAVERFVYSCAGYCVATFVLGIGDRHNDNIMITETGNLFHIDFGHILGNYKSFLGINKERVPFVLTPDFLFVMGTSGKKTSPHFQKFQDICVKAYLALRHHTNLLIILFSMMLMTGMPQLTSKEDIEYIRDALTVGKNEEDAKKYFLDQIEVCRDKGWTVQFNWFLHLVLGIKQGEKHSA
T2 sequence (O00329 whole entry, species assumed): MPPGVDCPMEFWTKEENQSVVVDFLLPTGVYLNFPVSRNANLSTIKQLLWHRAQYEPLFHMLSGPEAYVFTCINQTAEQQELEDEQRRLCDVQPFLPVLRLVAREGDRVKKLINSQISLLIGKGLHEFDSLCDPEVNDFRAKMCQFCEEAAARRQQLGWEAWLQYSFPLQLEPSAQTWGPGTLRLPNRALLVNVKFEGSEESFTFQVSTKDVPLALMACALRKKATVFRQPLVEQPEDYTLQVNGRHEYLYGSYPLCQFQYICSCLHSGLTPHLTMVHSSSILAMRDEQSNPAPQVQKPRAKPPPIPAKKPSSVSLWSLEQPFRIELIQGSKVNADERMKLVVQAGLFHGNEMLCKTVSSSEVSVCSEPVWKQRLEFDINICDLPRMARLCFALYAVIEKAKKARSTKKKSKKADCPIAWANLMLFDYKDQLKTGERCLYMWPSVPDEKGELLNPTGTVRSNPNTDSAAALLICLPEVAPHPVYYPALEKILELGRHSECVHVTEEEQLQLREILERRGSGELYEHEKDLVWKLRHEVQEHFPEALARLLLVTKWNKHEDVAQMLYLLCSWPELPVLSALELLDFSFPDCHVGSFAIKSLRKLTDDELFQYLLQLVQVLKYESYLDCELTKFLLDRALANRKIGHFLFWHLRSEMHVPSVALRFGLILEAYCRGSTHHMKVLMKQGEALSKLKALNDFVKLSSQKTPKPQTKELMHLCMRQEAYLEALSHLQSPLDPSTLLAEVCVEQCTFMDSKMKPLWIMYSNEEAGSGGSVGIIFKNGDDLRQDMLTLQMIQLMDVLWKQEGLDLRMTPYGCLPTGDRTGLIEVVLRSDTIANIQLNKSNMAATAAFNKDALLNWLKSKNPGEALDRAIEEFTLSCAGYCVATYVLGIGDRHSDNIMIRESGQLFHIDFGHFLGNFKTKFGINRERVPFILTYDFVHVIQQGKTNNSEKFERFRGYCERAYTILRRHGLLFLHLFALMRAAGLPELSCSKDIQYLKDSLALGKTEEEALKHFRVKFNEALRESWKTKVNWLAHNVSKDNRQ
T2 sequence (P27986 whole entry partner, species assumed): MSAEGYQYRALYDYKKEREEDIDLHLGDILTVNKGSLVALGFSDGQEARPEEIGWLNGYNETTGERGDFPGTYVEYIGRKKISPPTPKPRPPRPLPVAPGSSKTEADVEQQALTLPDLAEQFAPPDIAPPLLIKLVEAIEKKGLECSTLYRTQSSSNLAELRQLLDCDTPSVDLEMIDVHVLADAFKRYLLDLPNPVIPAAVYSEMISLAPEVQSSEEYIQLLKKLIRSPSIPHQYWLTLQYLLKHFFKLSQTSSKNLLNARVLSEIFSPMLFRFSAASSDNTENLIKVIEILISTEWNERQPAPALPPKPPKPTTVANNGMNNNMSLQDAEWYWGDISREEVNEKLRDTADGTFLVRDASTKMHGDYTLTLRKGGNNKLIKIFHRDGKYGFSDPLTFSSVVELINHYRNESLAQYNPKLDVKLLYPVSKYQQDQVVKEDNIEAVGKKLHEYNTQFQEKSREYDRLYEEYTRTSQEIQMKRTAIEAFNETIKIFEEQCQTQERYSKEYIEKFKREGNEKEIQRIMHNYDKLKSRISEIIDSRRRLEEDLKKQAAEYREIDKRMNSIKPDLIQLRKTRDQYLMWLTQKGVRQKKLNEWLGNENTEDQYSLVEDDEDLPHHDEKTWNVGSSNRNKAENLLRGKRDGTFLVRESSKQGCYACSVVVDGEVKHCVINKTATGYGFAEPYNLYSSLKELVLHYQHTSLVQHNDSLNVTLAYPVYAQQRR
T3 sequence (P42338 whole entry, species assumed): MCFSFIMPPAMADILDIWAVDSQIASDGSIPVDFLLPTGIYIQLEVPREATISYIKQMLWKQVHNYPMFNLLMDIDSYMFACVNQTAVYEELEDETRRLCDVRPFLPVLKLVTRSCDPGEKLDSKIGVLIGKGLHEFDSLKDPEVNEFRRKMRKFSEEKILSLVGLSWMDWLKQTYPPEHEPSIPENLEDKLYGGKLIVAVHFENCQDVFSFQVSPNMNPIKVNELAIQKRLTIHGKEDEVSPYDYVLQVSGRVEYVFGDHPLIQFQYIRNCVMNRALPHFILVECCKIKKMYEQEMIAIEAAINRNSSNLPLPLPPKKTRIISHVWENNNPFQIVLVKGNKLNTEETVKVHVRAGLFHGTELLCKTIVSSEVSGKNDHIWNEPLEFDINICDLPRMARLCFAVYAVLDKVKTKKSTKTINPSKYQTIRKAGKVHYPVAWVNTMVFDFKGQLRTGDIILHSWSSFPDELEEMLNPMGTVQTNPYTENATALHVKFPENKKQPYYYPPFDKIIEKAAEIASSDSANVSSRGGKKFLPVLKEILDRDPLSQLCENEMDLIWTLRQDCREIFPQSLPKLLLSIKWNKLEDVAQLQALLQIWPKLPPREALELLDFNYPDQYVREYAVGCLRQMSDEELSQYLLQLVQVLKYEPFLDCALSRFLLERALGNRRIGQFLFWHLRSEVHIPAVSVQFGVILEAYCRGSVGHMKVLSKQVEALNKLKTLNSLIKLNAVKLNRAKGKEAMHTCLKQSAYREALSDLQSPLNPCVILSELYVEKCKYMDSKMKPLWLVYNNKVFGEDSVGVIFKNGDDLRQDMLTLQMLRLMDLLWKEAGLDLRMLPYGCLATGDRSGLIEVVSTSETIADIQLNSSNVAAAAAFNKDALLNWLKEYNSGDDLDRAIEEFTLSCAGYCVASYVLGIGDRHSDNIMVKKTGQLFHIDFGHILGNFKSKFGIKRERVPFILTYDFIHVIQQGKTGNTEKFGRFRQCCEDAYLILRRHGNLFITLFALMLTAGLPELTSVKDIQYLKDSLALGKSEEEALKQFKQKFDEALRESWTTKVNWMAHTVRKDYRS
T3 sequence (P27986 whole entry partner, species assumed): as the sequence (P27986 whole entry partner, species assumed) above
T1 sequence (P42336 whole entry, species assumed): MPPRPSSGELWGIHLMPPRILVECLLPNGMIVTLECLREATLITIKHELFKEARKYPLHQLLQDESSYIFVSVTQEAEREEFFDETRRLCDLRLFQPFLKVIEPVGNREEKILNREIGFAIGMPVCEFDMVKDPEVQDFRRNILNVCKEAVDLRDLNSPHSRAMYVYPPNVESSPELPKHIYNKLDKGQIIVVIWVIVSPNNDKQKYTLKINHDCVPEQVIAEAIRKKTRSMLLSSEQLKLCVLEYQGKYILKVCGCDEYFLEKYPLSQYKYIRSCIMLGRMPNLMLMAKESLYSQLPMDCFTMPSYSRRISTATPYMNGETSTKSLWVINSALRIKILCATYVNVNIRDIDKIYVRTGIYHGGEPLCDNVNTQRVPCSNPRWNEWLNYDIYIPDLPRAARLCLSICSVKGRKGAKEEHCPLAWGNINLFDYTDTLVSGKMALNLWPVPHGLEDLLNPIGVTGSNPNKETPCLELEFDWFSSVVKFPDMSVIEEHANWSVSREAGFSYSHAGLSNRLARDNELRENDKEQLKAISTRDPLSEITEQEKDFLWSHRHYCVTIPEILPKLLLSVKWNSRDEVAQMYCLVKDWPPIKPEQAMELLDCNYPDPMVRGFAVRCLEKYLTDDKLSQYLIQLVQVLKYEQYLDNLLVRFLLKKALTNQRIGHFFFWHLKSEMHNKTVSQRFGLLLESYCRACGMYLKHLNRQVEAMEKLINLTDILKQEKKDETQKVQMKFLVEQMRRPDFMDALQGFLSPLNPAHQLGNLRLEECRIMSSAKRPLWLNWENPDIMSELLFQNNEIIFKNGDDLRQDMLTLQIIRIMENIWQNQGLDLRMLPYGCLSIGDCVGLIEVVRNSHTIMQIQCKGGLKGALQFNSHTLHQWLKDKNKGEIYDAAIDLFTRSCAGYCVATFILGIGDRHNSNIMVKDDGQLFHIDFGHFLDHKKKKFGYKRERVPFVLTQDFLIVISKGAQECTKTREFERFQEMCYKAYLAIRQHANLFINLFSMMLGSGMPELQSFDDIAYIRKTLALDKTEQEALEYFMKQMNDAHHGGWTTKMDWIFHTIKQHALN
T1 sequence (P27986 whole entry partner, species assumed): as the sequence (P27986 whole entry partner, species assumed) above

Row | Structure (SMILES) | IC50 (PI3K alpha) [nM] | IC50 (PI3K delta) [nM] | α/δ ratio (PI3K delta) | IC50 (PI3K beta) [nM] | α/β ratio (PI3K beta) | IC50 (PI3K gamma) [nM] | β/δ ratio (PI3K delta) | γ/δ ratio (PI3K delta) | IC50 (mTOR) [nM]
1 | CC(Nc1nc(N2CCOCC2)nc(-n2c(C(F)F)nc3ccccc32)n1)c1ccccc1 (centres unmarked) [Compound A1, 4-(2-(difluoromethyl)-1H-benzo[d]imidazol-1-yl)-6-morpholino-N-(1-phenylethyl)-1,3,5-triazin-2-amine] | > 500 | ≤ 100 | C’ | – | – | – | – | – | –
2 | C[C@H](Nc1nc(N2CCOCC2)nc(-n2c(C(F)F)nc3ccccc32)n1)c1ccccc1 [Compound A2, (S)-4-(2-(difluoromethyl)-1H-benzo[d]imidazol-1-yl)-6-morpholino-N-(1-phenylethyl)-1,3,5-triazin-2-amine] | > 500 | 200 to 500 | D’ | > 500 | D’ | > 500 | A’ | D’ | > 500
3 | C[C@@H](Nc1nc(N2CCOCC2)nc(-n2c(C(F)F)nc3ccccc32)n1)c1ccccc1 [Compound A3, (R)-4-(2-(difluoromethyl)-1H-benzo[d]imidazol-1-yl)-6-morpholino-N-(1-phenylethyl)-1,3,5-triazin-2-amine] | > 500 | > 500 | D’ | – | – | – | – | – | –
4 | CC[C@H](Nc1nc(N2CCOCC2)nc(-n2c(C(F)F)nc3ccccc32)n1)c1ccccc1 [Compound A5, (S)-4-(2-(difluoromethyl)-1H-benzo[d]imidazol-1-yl)-6-morpholino-N-(1-phenylpropyl)-1,3,5-triazin-2-amine] | > 500 | 200 to 500 | C’ | > 500 | D’ | 100 to 200 | C’ | D’ | > 500
5 | CC[C@@H](Nc1nc(N2CCOCC2)nc(-n2c(C(F)F)nc3ccccc32)n1)c1ccccc1 [Compound A6, (R)-4-(2-(difluoromethyl)-1H-benzo[d]imidazol-1-yl)-6-morpholino-N-(1-phenylpropyl)-1,3,5-triazin-2-amine] | > 500 | > 500 | B’ | – | – | – | – | – | –
6 | CC(C)(Nc1nc(N2CCOCC2)nc(-n2c(C(F)F)nc3ccccc32)n1)c1ccccc1 [Compound A7, 4-(2-(difluoromethyl)-1H-benzo[d]imidazol-1-yl)-6-morpholino-N-(2-phenylpropan-2-yl)-1,3,5-triazin-2-amine] | > 500 | 100 to 200 | C’ | > 500 | D’ | 200 to 500 | A’ | D’ | > 500
7 | CC(C)(Nc1nc(N2CCOCC2)nc(-n2c(C(F)F)nc3ccccc32)n1)c1ccc(Cl)cc1 [Compound A8, N-(2-(4-chlorophenyl)propan-2-yl)-4-(2-(difluoromethyl)-1H-benzo[d]imidazol-1-yl)-6-morpholino-1,3,5-triazin-2-amine] | > 500 | > 500 | C’ | – | – | – | – | – | –
8 | COc1ccc(C(C)(C)Nc2nc(N3CCOCC3)nc(-n3c(C(F)F)nc4ccccc43)n2)cc1 [Compound A9, 4-(2-(difluoromethyl)-1H-benzo[d]imidazol-1-yl)-N-(2-(4-methoxyphenyl)propan-2-yl)-6-morpholino-1,3,5-triazin-2-amine] | > 500 | > 500 | D’ | – | – | – | – | – | –
9 | COC(=O)[C@H](Nc1nc(N2CCOCC2)nc(-n2c(C(F)F)nc3ccccc32)n1)c1ccccc1 [Compound A11, (R)-methyl 2-((4-(2-(difluoromethyl)-1H-benzo[d]imidazol-1-yl)-6-morpholino-1,3,5-triazin-2-yl)amino)-2-phenylacetate] | 200 to 500 | ≤ 100 | D’ | – | – | – | – | – | –
10 | COC(=O)[C@@H](Nc1nc(N2CCOCC2)nc(-n2c(C(F)F)nc3ccccc32)n1)c1ccccc1 [Compound A12, (S)-methyl 2-((4-(2-(difluoromethyl)-1H-benzo[d]imidazol-1-yl)-6-morpholino-1,3,5-triazin-2-yl)amino)-2-phenylacetate] | > 500 | 200 to 500 | D’ | – | – | – | – | – | –
11 | CC(C)(Nc1nc(N2CCOCC2)nc(-n2c(C(F)F)nc3ccccc32)n1)c1ccc2ccccc2c1 [Compound A13, 4-(2-(difluoromethyl)-1H-benzo[d]imidazol-1-yl)-6-morpholino-N-(2-(naphthalen-2-yl)propan-2-yl)-1,3,5-triazin-2-amine] | > 500 | > 500 | A’ | – | – | – | – | – | –
12 | CC(C)(Cc1ccccc1Br)Nc1nc(N2CCOCC2)nc(-n2c(C(F)F)nc3ccccc32)n1 [Compound A17, 4-(2-(difluoromethyl)-1H-benzo[d]imidazol-1-yl)-N-(1-(2-bromophenyl)-2-methylpropan-2-yl)-6-morpholino-1,3,5-triazin-2-amine] | > 500 | – | – | – | – | – | – | – | > 500
13 | CC(C)(Cc1cccc(Cl)c1)Nc1nc(N2CCOCC2)nc(-n2c(C(F)F)nc3ccccc32)n1 [Compound A20, N-(1-(3-chlorophenyl)-2-methylpropan-2-yl)-4-(2-(difluoromethyl)-1H-benzo[d]imidazol-1-yl)-6-morpholino-1,3,5-triazin-2-amine] | > 500 | 100 to 200 | A’ | 100 to 200 | A’ | > 500 | D’ | C’ | > 500
14 | CC(C)(Cc1ccc2ccccc2c1)Nc1nc(N2CCOCC2)nc(-n2c(C(F)F)nc3ccccc32)n1 [Compound A26, 4-(2-(difluoromethyl)-1H-benzo[d]imidazol-1-yl)-N-(2-methyl-1-(naphthalen-2-yl)propan-2-yl)-6-morpholino-1,3,5-triazin-2-amine] | 200 to 500 | 100 to 200 | D’ | ≤ 100 | C’ | 100 to 200 | D’ | D’ | > 500
15 | CC(C)(CNc1nc(N2CCOCC2)nc(-n2c(C(F)F)nc3ccccc32)n1)c1ccccc1 [Compound A29, 4-(2-(difluoromethyl)-1H-benzo[d]imidazol-1-yl)-N-(2-methyl-2-phenylpropyl)-6-morpholino-1,3,5-triazin-2-amine] | > 500 | 200 to 500 | C’ | > 500 | D’ | > 500 | A’ | D’ | > 500
16 | CC(C)(Nc1nc(N2CCOCC2)nc(-n2c(C(F)F)nc3ccccc32)n1)C1(c2ccccc2)CC1 [Compound A30, 4-(2-(difluoromethyl)-1H-benzo[d]imidazol-1-yl)-N-(2-(1-phenylcyclopropyl)propan-2-yl)-6-morpholino-1,3,5-triazin-2-amine] | > 500 | 100 to 200 | A’ | 200 to 500 | B’ | > 500 | D’ | D’ | > 500
17 | FC(F)c1nc2ccccc2n1-c1nc(NCc2ccccc2)nc(N2CCOCC2)n1 [Ref 1, N-benzyl-4-(2-(difluoromethyl)-1H-benzo[d]imidazol-1-yl)-6-morpholino-1,3,5-triazin-2-amine, reference compound] | 100 to 200 | 100 to 200 | D’ | – | – | – | – | – | –
